Assays:
[1] = biological target: A2 receptor (Rattus norvegicus, UniProt P30543); experiment: IC50 at the A2 receptor (^3 H-CGS21680); type: binding
[2] = biological target: T1, A1 receptor (Rattus norvegicus, UniProt P25099); experiment: IC50 at the A1 receptor (^3 H-PIA); type: binding; conditions: for IC50: ^3 H-PIA
T1 sequence (P25099 1-326): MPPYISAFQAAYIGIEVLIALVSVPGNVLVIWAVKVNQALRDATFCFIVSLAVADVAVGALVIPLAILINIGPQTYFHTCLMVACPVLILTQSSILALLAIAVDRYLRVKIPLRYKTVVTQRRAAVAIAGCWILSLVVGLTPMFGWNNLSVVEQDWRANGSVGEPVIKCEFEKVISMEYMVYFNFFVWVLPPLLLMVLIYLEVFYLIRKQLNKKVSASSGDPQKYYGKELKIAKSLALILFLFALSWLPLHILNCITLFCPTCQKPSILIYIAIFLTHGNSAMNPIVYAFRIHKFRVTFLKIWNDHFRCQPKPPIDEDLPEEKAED

[3] = test system: animals; conditions: cited from earlier work
[4] = test system: coronary vascular smooth muscle; conditions: cited from earlier work
[5] = test system: A2 surface receptors; conditions: cited from earlier work; for agonism at the A2 site: in words
[6] = in vivo; cited from earlier work
[7] = test system: A1 surface receptors; conditions: both sites, in words; cited from earlier work
[8] = test system: noradrenaline-contracted guinea pig aorta; conditions: by interactions with A2 receptors; cited from earlier work
[9] = because of antagonism of the effects of extracellular adenosine; cited from earlier work
[10] = test system: adenosine uptake system (nucleoside transporter); conditions: cited from earlier work
[11] = test system: A2 site; conditions: cited from earlier work
[12] = in vivo; rats (printed "rates"); cited from earlier work
[13] = test system: adenosine deaminase; conditions: cited from earlier work
[14] = test system: cerebellar cyclic GMP; conditions: in vivo; cited from earlier work
[15] = test system: mice; conditions: oral or intraperitoneal; cited from earlier work
[16] = test system: A1 site; conditions: cited from earlier work
[17] = test system: mouse spinal cord; conditions: at doses in which neuromuscular junction transmission was unaltered; cited from earlier work
[18] = biological target: benzodiazepine receptors; conditions: cited from earlier work
[19] = test system: rats; conditions: NECA vs R-PIA; cited from earlier work

Chain of A2 receptor (P30543 whole entry): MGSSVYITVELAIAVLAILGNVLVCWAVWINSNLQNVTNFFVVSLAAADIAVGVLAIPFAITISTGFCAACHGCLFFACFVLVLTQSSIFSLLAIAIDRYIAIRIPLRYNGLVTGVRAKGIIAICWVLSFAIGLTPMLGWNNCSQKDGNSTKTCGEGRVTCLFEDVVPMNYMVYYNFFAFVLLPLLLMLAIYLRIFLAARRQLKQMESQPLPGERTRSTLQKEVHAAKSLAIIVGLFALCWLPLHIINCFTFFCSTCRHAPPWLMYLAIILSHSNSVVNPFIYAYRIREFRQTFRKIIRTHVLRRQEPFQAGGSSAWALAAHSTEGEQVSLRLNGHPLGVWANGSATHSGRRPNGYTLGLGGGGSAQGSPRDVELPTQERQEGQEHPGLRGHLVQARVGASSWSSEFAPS

CCNC(=O)C(C)Sc1nc(SC(C)C(=O)NCC)c2cnn(-c3ccccc3)c2n1 (stereo not drawn) [Compound 6, 4,6-Bis-α-N-ethylcarbamoylethylthio-1-phenylpyrazolo[3,4-d]pyrimidine]
IC50 [1]: 570 nM
IC50 [2]: 580 nM

Nc1ncnc2c1ncn2[C@@H]1O[C@H](CO)[C@@H](O)[C@H]1O [adenosine]
effects when given to animals ([3]; intraperitoneal, alone): minimal or no effects
effects in the presence of an adenosine uptake inhibitor and/or adenosine deaminase inhibitor ([3]; with adenosine uptake inhibitor and/or adenosine deaminase inhibitor): can cause muscle relaxation and hypothermia
relaxation of coronary vascular smooth muscle [4]: causes relaxation
agonism at the A2 site [5]: non-selective and are good agonists at both sites
activity of adenosine in words [6]: profound hypotensive, antispasmodic, sedative and vasodilatory activity
agonism at the A1 site [7]: non-selective and are good agonists at both sites
relaxation of noradrenaline-contracted guinea pig aorta [8]: relaxed

Cn1c(=O)c2c(ncn2C)n(C)c1=O [caffeine]
central stimulant action [9]: central stimulant action

Cn1c(=O)c2[nH]cnc2n(C)c1=O [theophylline]
central stimulant action [9]: central stimulant action

Cn1c(N)c2ncn([C@@H]3O[C@H](CO)[C@@H](O)[C@H]3O)c2nc1=O [1-methylisoguanosine]
substrate for, or inhibitor of, the adenosine uptake system [10]: poor substrate for, or inhibitor of, the adenosine uptake system
interaction with extracellular adenosine receptors, A2 site [11]: can interact with extracellular adenosine receptors
effect on blood pressure and heart rate [12]: reduced blood pressure and heart rate
degradation by adenosine deaminase [13]: resistant to degradation by adenosine deaminase
cerebellar levels of cyclic GMP [14]: decreases cerebellar levels of cyclic GMP
muscle relaxation and hypothermia [15]: potent muscle relaxation and hypothermine
interaction with extracellular adenosine receptors, A1 site [16]: can interact with extracellular adenosine receptors
polysynaptic responses in the mouse spinal cord [17]: blocked polysynaptic responses
Ki ([18]; benzodiazepine receptors, read-out: Ki vs ^3 H-diazepam binding): ~17000 nM
potency at benzodiazepine receptors relative to inosine and hypoxanthine ([18]; comparison in words): several hundred fold more potent than inosine and hypoxanthine

CN1C(=O)CN=C(c2ccccc2)c2cc(Cl)ccc21 [diazepam]
cerebellar levels of cyclic GMP [14]: decreases cerebellar levels of cyclic GMP
Kd ([18]; radioligand, read-out: Kd of ^3 H-diazepam binding): 11 nM

C[C@H](Cc1ccccc1)Nc1ncnc2c1ncn2[C@@H]1O[C@H](CO)[C@@H](O)[C@H]1O [PIA]
agonism at the A2 site [5]: reduced agonistic activity

CCNC(=O)C(C)Sc1nc(N)c2cnn(-c3ccccc3)c2n1 (centres unmarked) [Compound 8]
IC50 [2]: 17 nM

CCC(Sc1nc(SC(CC)C(N)=O)c2cnn(-c3ccccc3)c2n1)C(N)=O (stereo not drawn) [Compound 4, 4,6-bis-α-carbamoylpropylthio-1-phenylpyrazolo[3,4-d]pyrimidine]
IC50 [2]: 108 nM
potency of butanamide side chain versus propionamide moiety in FIG. 3 ([2]; comparison in words): increased potency over the proprionamide moiety

CCNC(=O)C(C)Sc1nc(S)c2cnn(-c3ccccc3)c2n1 (stereo not drawn) [Compound 7, 6-α-N-Ethylcarbamoylethylthio-4-mercapto-1-phenylpyrazolo[3,4-d]pyrimidine]
IC50 [1]: 540 nM
IC50 [2]: 490 nM

CCC(Sc1nc2c(cnn2-c2ccccc2)c(=S)[nH]1)C(N)=O (stereo not drawn) [Compound 5, 6-α-carbamoylpropylthio-4-mercapto-1-phenylpyrazolo[3,4-d]pyrimidine]
IC50 [2]: 492 nM

CCCCSc1cc(Nc2ccccc2)nc(SC(C)C(N)=O)n1 (centres unmarked) [Compound 1, (2-n-butylthio)-4-(N-phenyl)-6-propionamidyl thiopyrimidine]
affinity for the A1 receptor ([2]; in words): moderate affinity

CCNC(=O)[C@H]1O[C@@H](n2cnc3c(N)ncnc32)[C@H](O)[C@@H]1O [NECA, 5'-N-ethyl carboxamidoadenosine]
agonist potency at A2 surface receptors ([5]; adenylate cyclase systems, NECA vs R-PIA): more potent agonist at A2 surface receptors than is R-N^6 -phenylisopropyl adenosine (R-PIA)
agonism at the A2 site [5]: non-selective and are good agonists at both sites
agonism at the A1 site [7]: non-selective and are good agonists at both sites
anticonvulsant activity in reductions of amygdaloid-kindled seizures [19]: slightly more anticonvulsant activity than R-PIA

Reference: patent publication US5227485A, “Pyrazolo[3,4-d]pyrimidines with adenosine-like binding affinities” (Griffith University, priority 1990, dated 1993)
